Test results reported in the kinase profiling compilation of Christmann-Franck et al. (2016).

Tests used:
Experiment in all cases: KINOMEscan competition binding
STK39 (human) = STK39 (human) (UniProt Q9UEW8)
PRKCI (human) = PRKCI (human) (UniProt P41743)
BTK (human) = BTK (human) (UniProt Q06187)
IRAK4 (human) = IRAK4 (human) (UniProt Q9NWZ3)
FGFR2 (human) = FGFR2 (human) (UniProt P21802)
[1] = system: PIK3CA (human), P42336 [E545A]
AKT3 (human) = AKT3 (human) (UniProt Q9Y243)
PRKX (human) = PRKX (human) (UniProt P51817)
STK10 (human) = STK10 (human) (UniProt O94804)
WEE2 (human) = WEE2 (human) (UniProt P0C1S8)
Chain of WEE2 (human) (P0C1S8 whole entry, looked up): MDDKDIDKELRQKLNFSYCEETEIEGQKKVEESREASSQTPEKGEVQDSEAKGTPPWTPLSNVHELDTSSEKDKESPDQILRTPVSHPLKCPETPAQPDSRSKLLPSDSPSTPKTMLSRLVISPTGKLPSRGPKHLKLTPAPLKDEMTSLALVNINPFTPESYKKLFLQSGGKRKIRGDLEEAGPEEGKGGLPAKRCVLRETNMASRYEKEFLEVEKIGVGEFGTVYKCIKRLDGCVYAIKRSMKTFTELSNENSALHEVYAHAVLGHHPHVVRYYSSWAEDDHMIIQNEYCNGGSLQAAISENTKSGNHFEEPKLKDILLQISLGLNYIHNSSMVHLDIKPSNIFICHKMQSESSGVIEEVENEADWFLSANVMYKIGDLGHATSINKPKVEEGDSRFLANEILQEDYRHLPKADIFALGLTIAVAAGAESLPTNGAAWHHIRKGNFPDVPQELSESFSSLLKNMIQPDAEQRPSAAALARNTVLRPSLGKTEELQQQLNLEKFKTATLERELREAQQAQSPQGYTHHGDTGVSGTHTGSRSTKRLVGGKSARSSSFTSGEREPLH

CAMK2B (human) = CAMK2B (human) (UniProt Q13554)
CDK13 (human) = CDK13 (human) (UniProt Q14004)
PIK3C2G (human) = PIK3C2G (human) (UniProt O75747)
MAP4K5 (human) = MAP4K5 (human) (UniProt Q9Y4K4)
[2] = system: EGFR (human), P00533 [P753S; 747-752 del]
[3] = system: RET (human), P07949 [V804L]
ITK (human) = ITK (human) (UniProt Q08881)
NEK1 (human) = NEK1 (human) (UniProt Q96PY6)
PRKCE (human) = PRKCE (human) (UniProt Q02156)
MET (human) = MET (human) (UniProt P08581)
CDK7 (human) = CDK7 (human) (UniProt P50613)
LATS1 (human) = LATS1 (human) (UniProt O95835)
CSK (human) = CSK (human) (UniProt P41240)
[4] = system: EGFR (human), P00533 [T790M]
PRKAA2 (human) = PRKAA2 (human) (UniProt P54646)
FGFR3 (human) = FGFR3 (human) (UniProt P22607)
Chain of FGFR3 (human) (P22607 whole entry, looked up): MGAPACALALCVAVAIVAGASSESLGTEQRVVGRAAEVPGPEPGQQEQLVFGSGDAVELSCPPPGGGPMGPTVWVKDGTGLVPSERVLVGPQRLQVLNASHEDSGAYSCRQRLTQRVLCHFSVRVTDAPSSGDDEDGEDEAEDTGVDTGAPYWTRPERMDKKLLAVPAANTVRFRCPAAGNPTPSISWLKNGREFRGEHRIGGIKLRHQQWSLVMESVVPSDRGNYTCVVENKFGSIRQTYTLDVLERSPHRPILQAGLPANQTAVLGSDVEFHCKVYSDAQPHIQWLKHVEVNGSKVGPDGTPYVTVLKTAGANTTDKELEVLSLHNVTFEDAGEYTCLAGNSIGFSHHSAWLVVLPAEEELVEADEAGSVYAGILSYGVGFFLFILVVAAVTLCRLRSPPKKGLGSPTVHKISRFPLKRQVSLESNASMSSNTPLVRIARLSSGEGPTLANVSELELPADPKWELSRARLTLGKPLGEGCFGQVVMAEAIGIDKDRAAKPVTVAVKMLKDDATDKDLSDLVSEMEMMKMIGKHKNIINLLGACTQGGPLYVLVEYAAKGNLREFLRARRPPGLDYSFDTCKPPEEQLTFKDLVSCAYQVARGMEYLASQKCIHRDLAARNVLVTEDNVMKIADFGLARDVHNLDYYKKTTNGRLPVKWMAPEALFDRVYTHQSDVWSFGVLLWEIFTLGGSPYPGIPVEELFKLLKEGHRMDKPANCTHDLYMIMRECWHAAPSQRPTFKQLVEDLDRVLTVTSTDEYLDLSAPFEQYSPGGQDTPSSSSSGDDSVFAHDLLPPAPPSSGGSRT

CAMK2A (human) = CAMK2A (human) (UniProt Q9UQM7)
MAK (human) = MAK (human) (UniProt P20794)
DAPK2 (human) = DAPK2 (human) (UniProt Q9UIK4)
EPHA7 (human) = EPHA7 (human) (UniProt Q15375)
Chain of EPHA7 (human) (Q15375 whole entry, looked up): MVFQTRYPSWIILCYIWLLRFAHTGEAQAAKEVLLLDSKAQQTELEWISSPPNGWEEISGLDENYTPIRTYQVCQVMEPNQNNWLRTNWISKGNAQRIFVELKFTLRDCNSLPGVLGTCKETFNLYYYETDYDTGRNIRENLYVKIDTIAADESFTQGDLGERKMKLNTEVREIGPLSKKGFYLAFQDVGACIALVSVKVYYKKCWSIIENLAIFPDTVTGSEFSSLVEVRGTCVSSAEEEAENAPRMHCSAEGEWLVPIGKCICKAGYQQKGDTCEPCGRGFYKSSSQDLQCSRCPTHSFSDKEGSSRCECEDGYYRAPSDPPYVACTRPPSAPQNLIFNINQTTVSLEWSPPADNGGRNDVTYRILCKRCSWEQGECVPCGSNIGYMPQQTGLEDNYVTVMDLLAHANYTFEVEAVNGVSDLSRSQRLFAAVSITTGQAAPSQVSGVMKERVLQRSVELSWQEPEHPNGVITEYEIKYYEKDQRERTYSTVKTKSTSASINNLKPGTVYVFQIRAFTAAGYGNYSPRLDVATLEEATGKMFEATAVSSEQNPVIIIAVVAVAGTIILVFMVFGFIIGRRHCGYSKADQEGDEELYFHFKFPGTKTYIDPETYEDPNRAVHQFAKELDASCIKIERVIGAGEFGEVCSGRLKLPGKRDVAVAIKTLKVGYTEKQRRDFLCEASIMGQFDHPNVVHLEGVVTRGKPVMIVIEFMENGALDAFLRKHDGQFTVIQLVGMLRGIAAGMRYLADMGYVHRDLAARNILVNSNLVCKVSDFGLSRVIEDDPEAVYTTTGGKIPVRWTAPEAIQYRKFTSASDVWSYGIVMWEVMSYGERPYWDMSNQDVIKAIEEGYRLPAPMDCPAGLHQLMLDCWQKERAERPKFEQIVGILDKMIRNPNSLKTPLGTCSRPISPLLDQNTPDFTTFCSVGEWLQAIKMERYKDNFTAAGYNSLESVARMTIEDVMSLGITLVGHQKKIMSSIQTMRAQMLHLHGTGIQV

BMP2K (human) = BMP2K (human) (UniProt Q9NSY1)
ULK3 (human) = ULK3 (human) (UniProt Q6PHR2)
RIPK4 (human) = RIPK4 (human) (UniProt P57078)
[5] = target: TYK2 JH1 catalytic (human) (UniProt P29597)
RIPK2 (human) = RIPK2 (human) (UniProt O43353)
Chain of RIPK2 (human) (O43353 whole entry, looked up): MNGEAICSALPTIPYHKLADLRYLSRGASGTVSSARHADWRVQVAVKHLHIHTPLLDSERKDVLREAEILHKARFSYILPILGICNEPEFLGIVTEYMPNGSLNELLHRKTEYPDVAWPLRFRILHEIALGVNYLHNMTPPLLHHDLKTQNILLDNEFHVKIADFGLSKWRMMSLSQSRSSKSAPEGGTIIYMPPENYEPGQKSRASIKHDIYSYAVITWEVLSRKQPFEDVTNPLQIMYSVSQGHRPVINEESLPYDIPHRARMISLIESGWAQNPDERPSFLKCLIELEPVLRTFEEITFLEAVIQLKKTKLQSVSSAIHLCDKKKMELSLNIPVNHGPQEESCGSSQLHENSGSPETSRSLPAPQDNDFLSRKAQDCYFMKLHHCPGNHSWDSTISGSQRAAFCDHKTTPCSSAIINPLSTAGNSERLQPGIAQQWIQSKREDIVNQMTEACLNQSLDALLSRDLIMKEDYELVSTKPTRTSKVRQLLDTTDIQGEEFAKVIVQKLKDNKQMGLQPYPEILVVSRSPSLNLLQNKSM

MAPK11 (human) = MAPK11 (human) (UniProt Q15759)
CSNK1G3 (human) = CSNK1G3 (human) (UniProt Q9Y6M4)
ACVRL1 (human) = ACVRL1 (human) (UniProt P37023)
TESK1 (human) = TESK1 (human) (UniProt Q15569)
PDPK1 (human) = PDPK1 (human) (UniProt O15530)
ALK (human) = ALK (human) (UniProt Q9UM73)
Chain of ALK (human) (Q9UM73 whole entry, looked up): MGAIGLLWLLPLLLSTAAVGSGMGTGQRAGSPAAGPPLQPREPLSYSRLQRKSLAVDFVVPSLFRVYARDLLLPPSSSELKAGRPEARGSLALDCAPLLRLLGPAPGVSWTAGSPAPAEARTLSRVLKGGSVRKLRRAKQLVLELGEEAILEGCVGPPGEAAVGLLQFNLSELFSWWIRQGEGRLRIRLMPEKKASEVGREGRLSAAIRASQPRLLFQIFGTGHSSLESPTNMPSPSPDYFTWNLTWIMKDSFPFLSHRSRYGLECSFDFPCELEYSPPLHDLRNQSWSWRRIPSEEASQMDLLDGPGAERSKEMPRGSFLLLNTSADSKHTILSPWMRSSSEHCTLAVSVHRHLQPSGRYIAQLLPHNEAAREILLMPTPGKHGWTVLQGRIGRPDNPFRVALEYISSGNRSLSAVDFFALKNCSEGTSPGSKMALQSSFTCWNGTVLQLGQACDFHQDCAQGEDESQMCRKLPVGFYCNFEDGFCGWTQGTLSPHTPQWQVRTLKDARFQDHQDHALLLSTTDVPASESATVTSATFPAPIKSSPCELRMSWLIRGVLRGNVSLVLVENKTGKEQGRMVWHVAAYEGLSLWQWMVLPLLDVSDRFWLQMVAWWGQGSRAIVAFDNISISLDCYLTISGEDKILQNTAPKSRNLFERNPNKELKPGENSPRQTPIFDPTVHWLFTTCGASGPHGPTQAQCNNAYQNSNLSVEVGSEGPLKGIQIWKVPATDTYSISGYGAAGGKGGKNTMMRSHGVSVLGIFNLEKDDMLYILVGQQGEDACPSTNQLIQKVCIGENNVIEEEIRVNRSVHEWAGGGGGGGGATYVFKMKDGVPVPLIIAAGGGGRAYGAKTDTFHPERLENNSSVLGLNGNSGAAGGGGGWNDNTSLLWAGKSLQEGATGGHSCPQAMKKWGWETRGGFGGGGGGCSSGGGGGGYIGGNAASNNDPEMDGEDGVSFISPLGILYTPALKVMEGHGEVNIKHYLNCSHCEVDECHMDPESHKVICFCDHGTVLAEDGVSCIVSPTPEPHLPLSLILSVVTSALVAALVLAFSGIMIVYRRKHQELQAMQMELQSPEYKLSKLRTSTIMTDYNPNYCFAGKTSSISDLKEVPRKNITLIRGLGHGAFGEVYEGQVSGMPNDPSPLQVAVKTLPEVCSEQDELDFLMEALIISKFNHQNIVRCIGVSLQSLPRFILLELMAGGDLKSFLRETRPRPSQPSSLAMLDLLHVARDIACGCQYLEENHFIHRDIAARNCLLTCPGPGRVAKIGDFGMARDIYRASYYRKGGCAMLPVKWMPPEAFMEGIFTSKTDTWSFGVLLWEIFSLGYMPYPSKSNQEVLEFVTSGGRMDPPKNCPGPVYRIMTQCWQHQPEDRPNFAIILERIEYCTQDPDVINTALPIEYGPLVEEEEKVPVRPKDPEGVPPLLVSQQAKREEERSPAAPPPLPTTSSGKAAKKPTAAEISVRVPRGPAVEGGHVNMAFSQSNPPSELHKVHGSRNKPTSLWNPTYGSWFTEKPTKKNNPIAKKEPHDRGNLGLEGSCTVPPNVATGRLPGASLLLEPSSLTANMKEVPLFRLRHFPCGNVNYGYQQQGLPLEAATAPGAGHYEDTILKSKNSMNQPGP

MERTK (human) = MERTK (human) (UniProt Q12866)
CDKL2 (human) = CDKL2 (human) (UniProt Q92772)
Chain of CDKL2 (human) (Q92772 whole entry, looked up): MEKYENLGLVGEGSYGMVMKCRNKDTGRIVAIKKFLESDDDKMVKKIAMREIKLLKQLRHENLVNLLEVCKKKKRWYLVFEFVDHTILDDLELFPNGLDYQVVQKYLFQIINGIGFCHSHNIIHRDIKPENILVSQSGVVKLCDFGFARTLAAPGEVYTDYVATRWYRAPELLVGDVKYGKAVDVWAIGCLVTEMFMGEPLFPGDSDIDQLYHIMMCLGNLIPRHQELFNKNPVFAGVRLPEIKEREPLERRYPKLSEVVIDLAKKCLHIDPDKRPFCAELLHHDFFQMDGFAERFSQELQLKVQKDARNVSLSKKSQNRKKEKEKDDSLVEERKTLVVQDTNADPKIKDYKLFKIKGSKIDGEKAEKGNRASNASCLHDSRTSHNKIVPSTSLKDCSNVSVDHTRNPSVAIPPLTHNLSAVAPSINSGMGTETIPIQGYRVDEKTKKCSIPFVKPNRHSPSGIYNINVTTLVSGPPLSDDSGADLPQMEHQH

SMILES: Cc1cc(NC(=O)c2cccc(NC(=O)/C=C/CN(C)C)c2)ccc1Nc1nccc(-c2cccnc2)n1
- kinase still bound, per cent of control (STK39 (human); compound 1.0 µM): 95%
- kinase still bound, per cent of control (PRKCI (human); compound 1.0 µM): 93%
- kinase still bound, per cent of control (BTK (human); compound 1.0 µM): 100%
- kinase still bound, per cent of control (IRAK4 (human); compound 1.0 µM): 93%
- kinase still bound, per cent of control (FGFR2 (human); compound 1.0 µM): 79%
- kinase still bound, per cent of control ([1]; compound 1.0 µM): 95%
- kinase still bound, per cent of control (AKT3 (human); compound 1.0 µM): 100%
- kinase still bound, per cent of control (PRKX (human); compound 1.0 µM): 0%
- kinase still bound, per cent of control (STK10 (human); compound 1.0 µM): 100%
- kinase still bound, per cent of control (WEE2 (human); compound 1.0 µM): 100%
- kinase still bound, per cent of control (CAMK2B (human); compound 1.0 µM): 100%
- kinase still bound, per cent of control (CDK13 (human); compound 1.0 µM): 100%
- kinase still bound, per cent of control (PIK3C2G (human); compound 1.0 µM): 81%
- kinase still bound, per cent of control (MAP4K5 (human); compound 1.0 µM): 100%
- kinase still bound, per cent of control ([2]; compound 1.0 µM): 81%
- kinase still bound, per cent of control ([3]; compound 1.0 µM): 100%
- kinase still bound, per cent of control (ITK (human); compound 1.0 µM): 100%
- kinase still bound, per cent of control (NEK1 (human); compound 1.0 µM): 81%
- kinase still bound, per cent of control (PRKCE (human); compound 1.0 µM): 81%
- kinase still bound, per cent of control (MET (human); compound 1.0 µM): 100%
- kinase still bound, per cent of control (CDK7 (human); compound 1.0 µM): 39%
- kinase still bound, per cent of control (LATS1 (human); compound 1.0 µM): 91%
- kinase still bound, per cent of control (CSK (human); compound 1.0 µM): 100%
- kinase still bound, per cent of control ([4]; compound 1.0 µM): 100%
- kinase still bound, per cent of control (PRKAA2 (human); compound 1.0 µM): 84%
- kinase still bound, per cent of control (FGFR3 (human); compound 1.0 µM): 100%
- kinase still bound, per cent of control (CAMK2A (human); compound 1.0 µM): 100%
- kinase still bound, per cent of control (MAK (human); compound 1.0 µM): 100%
- kinase still bound, per cent of control (DAPK2 (human); compound 1.0 µM): 77%
- kinase still bound, per cent of control (EPHA7 (human); compound 1.0 µM): 100%
- kinase still bound, per cent of control (BMP2K (human); compound 1.0 µM): 94%
- kinase still bound, per cent of control (ULK3 (human); compound 1.0 µM): 40%
- kinase still bound, per cent of control (RIPK4 (human); compound 1.0 µM): 79%
- kinase still bound, per cent of control ([5]; compound 1.0 µM): 96%
- kinase still bound, per cent of control (RIPK2 (human); compound 1.0 µM): 99%
- kinase still bound, per cent of control (MAPK11 (human); compound 1.0 µM): 20%
- kinase still bound, per cent of control (CSNK1G3 (human); compound 1.0 µM): 100%
- kinase still bound, per cent of control (ACVRL1 (human); compound 1.0 µM): 96%
- kinase still bound, per cent of control (TESK1 (human); compound 1.0 µM): 100%
- kinase still bound, per cent of control (PDPK1 (human); compound 1.0 µM): 61%
- kinase still bound, per cent of control (ALK (human); compound 1.0 µM): 85%
- kinase still bound, per cent of control (MERTK (human); compound 1.0 µM): 100%
- kinase still bound, per cent of control (CDKL2 (human); compound 1.0 µM): 82%

SMILES: Cc1ccc(NC(=O)c2ccc(NC(=O)/C=C/CN(C)C)cc2)cc1Nc1nccc(-c2cccnc2)n1
- kinase still bound, per cent of control (STK39 (human); compound 10.0 µM): 82%
- kinase still bound, per cent of control (PRKCI (human); compound 10.0 µM): 97%
- kinase still bound, per cent of control (BTK (human); compound 10.0 µM): 76%
- kinase still bound, per cent of control (IRAK4 (human); compound 10.0 µM): 81%
- kinase still bound, per cent of control (FGFR2 (human); compound 10.0 µM): 100%
- kinase still bound, per cent of control ([1]; compound 10.0 µM): 100%
- kinase still bound, per cent of control (AKT3 (human); compound 10.0 µM): 100%
- kinase still bound, per cent of control (PRKX (human); compound 10.0 µM): 43%
- kinase still bound, per cent of control (STK10 (human); compound 10.0 µM): 89%
- kinase still bound, per cent of control (WEE2 (human); compound 10.0 µM): 100%
- kinase still bound, per cent of control (CAMK2B (human); compound 10.0 µM): 100%
- kinase still bound, per cent of control (CDK13 (human); compound 10.0 µM): 65%
- kinase still bound, per cent of control (PIK3C2G (human); compound 10.0 µM): 100%
- kinase still bound, per cent of control (MAP4K5 (human); compound 10.0 µM): 93%
- kinase still bound, per cent of control ([2]; compound 10.0 µM): 56%
- kinase still bound, per cent of control ([3]; compound 10.0 µM): 85%
- kinase still bound, per cent of control (ITK (human); compound 10.0 µM): 100%
- kinase still bound, per cent of control (NEK1 (human); compound 10.0 µM): 100%
- kinase still bound, per cent of control (PRKCE (human); compound 10.0 µM): 100%
- kinase still bound, per cent of control (MET (human); compound 10.0 µM): 100%
- kinase still bound, per cent of control (CDK7 (human); compound 10.0 µM): 68%
- kinase still bound, per cent of control (LATS1 (human); compound 10.0 µM): 100%
- kinase still bound, per cent of control (CSK (human); compound 10.0 µM): 100%
- kinase still bound, per cent of control ([4]; compound 10.0 µM): 92%
- kinase still bound, per cent of control (PRKAA2 (human); compound 10.0 µM): 56%
- kinase still bound, per cent of control (FGFR3 (human); compound 10.0 µM): 100%
- kinase still bound, per cent of control (CAMK2A (human); compound 10.0 µM): 93%
- kinase still bound, per cent of control (MAK (human); compound 10.0 µM): 100%
- kinase still bound, per cent of control (DAPK2 (human); compound 10.0 µM): 82%
- kinase still bound, per cent of control (EPHA7 (human); compound 10.0 µM): 99%
- kinase still bound, per cent of control (BMP2K (human); compound 10.0 µM): 88%
- kinase still bound, per cent of control (ULK3 (human); compound 10.0 µM): 100%
- kinase still bound, per cent of control (RIPK4 (human); compound 10.0 µM): 97%
- kinase still bound, per cent of control ([5]; compound 10.0 µM): 92%
- kinase still bound, per cent of control (RIPK2 (human); compound 10.0 µM): 67%
- kinase still bound, per cent of control (MAPK11 (human); compound 10.0 µM): 49%
- kinase still bound, per cent of control (CSNK1G3 (human); compound 10.0 µM): 71%
- kinase still bound, per cent of control (ACVRL1 (human); compound 10.0 µM): 100%
- kinase still bound, per cent of control (TESK1 (human); compound 10.0 µM): 100%
- kinase still bound, per cent of control (PDPK1 (human); compound 10.0 µM): 100%
- kinase still bound, per cent of control (ALK (human); compound 10.0 µM): 100%
- kinase still bound, per cent of control (MERTK (human); compound 10.0 µM): 81%
- kinase still bound, per cent of control (CDKL2 (human); compound 10.0 µM): 100%
